One assay addresses HIV protease (Human immunodeficiency virus type 1 group M subtype B, UniProt P04585). Briefly: biochemical. The text has this:
The procedure is based on the capacity of the test compound to inhibit enzymatic cleavage by HIV protease of a decapeptide (the substrate) having an amino acid sequence which includes a known HIV protease cleavage site of a HIV polyprotein; see H.G. Krausslich et al., Proc. Natl. Acad. Sci. USA, 86,807(1989).
Recombinant HIV Protease HPLC Assay: Enzyme: HIV protease was expressed in E. coli [construct pBRT1 prt⁺, see W.G. Farmerie et al., Science, 236, 305 (1987)], according to the following protocol: Unless stated otherwise, all solutions are aqueous solutions.
E. coli cells containing the pBRT1 prt⁺ plasmid were used to inoculate a seed culture media composed of Luria-Bertani Broth containing 100µg/mL of ampicillin. Flasks were incubated at 37° under agitation for 17 h. Production flasks containing sterile M9 broth, supplemented with 100µg/ml of ampicillin, were inoculated at a level of 1% (v/v) using the seed culture described above. Total volume in each production flask was 500 mL in a 2 L Erlenmeyer flask. Flasks were incubated at 37° under agitation until a cell concentration corresponding to an optical density (λ= 540 m) of 0.6 was reached (no dilution). This time span was routinely 3-4 h. Flasks were then supplemented with 5mM isopropylthiogalactoside (IPTG, Research Organics, Cleveland, Ohio, USA) and incubation was continued until the cell concentration reached an optical density of 0.2 at 16-fold dilution. Flasks were then supplemented with 1mM phenylmethylsulfonyl fluoride (PMSF) and rapidly chilled to 4°. The bacterial cells were recovered by centrifugation at 4°. The wet pellet was stored at -70°.
All steps below were performed at 4° unless otherwise indicated. Thawed cells were mixed with buffer A [50 mM […] HCl(Tris-HCl, pH 7.4); 0.6 mM ethylenediaminetetraacetic acid (EDTA); 0.375 M NaCl, 0.2% Nonidet P-40 ^R (BDH Chemicals Ltd., Poole, UK); 1mM PMSF], at a ratio of one part cells to nine parts buffer A. Diatomaceous earth (Celite 545 ^R , John Manville, Lompoc, CA, USA) was added at a ratio of two parts to one part of wet cell weight. The resulting slurry was homogenized at high speed (ca. 20,000 rpm) on a Waring ^R industrial blender for 8 x 15 sec. pulses. Cell debris/Celite ^R was collected by centrifugation and the resulting pellet was extracted with 4.5 parts of buffer A to one part wet solids using the homogenization procedure described above. Supernatants from both homogenization steps were combined and soluble protein was precipitated by the addition of solid (NH₄)₂SO₄ to yield a final concentration of 75% saturation. This mixture was agitated for 60 min and the precipitate was recovered by centrifugation. The resulting pellet was suspended in buffer B [50mM Tris-HCl, pH 8; 30 mM NaCl; 1 mM DL-dithio-threitol (DTT); 1 mM EDTA; 1 mM PMSF; 10% glycerol], and dialyzed for 18h against the same buffer.
An aliquot of the dialyzed extract containing 150 mg of the protein was loaded onto a Sephadex A25 ^R anion exchange column. (Pharmacia, Uppsala, Sweden) with bed dimensions of 70 cm length and 2.5 cm diameter. The sample was eluted isocratically with buffer B at a linear flow rate of 10 cm/h. Fractions containing HIV protease activity (see below for assay description) were combined, and soluble protein was precipitated by the addition of saturated aqueous (NH₄)₂SO₄ to yield a total (NH₄)₂SO₄ concentration of 85% saturation. Precipitated protein was removed by centrifugation and the resulting pellet was dissolved in buffer C [50 mM 2-(4-morpholino)ethanesulfonic acid (MES), pH 5.5; 150 mM NaCl; 1 mM DTT; 1 mM EDTA; 10% glycerol]. This preparation was dialyzed for 18h against buffer C, and then frozen at -70°. All crude extracts were purified by chromatography in aliquots containing 150 mg of protein in the same manner as described above. The final preparations from each batch were pooled, divided into 34µL aliquots and stored at -70°.

For a further assay, the system named is HIV. Particulars: at 20µg/mL; C8166 cells, H9/HTLV-IIIB, 72 h.

As to `CC(C)C[C@H](NC(=O)C[C@H](O)[C@H](CC1CCCCC1)NC(=O)[C@@H](NC(=O)CCc1ccc(OCC(=O)OCc2ccccc2)cc1)C(C)C)C(=O)N[C@@H](Cc1ccccc1)C(N)=O` [Example 2, [4-(BzlOC(O)CH₂O)Ph]CH₂CH₂C(O)-Val-ACHPA-Leu-Phe-NH₂], at HIV protease, the half-inhibitory concentration (IC50) – broadly, the point on the concentration scale where inhibition reaches its midpoint – amounted to 170 nM.

`CC(C)C[C@H](NC(=O)C[C@H](O)[C@H](CC1CCCCC1)NC(=O)[C@@H](NC(=O)[C@@H](O)CO)C(C)C)C(=O)N[C@@H](Cc1ccccc1)C(N)=O` [Example 4, [(S)-HOCH₂CH(OH)C(O)]-Val-ACHPA-Leu-Phe-NH₂] showed a concentration for half-maximal inhibition (IC50) against HIV protease of 180 nM. Turning to `CC(=O)N[C@H](C(=O)N[C@@H](CC1CCCCC1)[C@@H](O)CC(=O)N[C@@H](CC(C)C)C(=O)N[C@@H](Cc1ccccc1)C(N)=O)C(C)C` [Example 5, Ac-Val-ACHPA-Leu-Phe-NH₂], the half-maximal inhibitory concentration (IC50) against HIV protease turned out to be 280 nM. Besides, in the assay with HIV, the “inhibition of syncytia formation” value turned out to be 97%.

In turn, `CC(=O)N[C@H](C(=O)N[C@@H](CC1CCCCC1)[C@@H](O)CC(=O)N[C@@H](CC(C)C)C(=O)N[C@@H](Cc1ccccc1)C(N)=O)C(C)(C)C` [Example 11, Ac-Tbg-ACHPA-Leu-Phe-NH₂] had an IC50 against HIV protease of 200 nM. The “inhibition of syncytia formation” value in the assay with HIV is given as 72%.

`CC[C@H](C)[C@H](NC(=O)[C@H](CCC(=O)O)NC(=O)[C@H](CC(C)C)NC[C@H](Cc1ccccc1)NC(=O)[C@@H](NC(C)=O)C(C)C)C(N)=O` [Example 12, Ac-Val-Pheψ[CH₂NH]Leu-Glu-Ile-NH₂] displayed a half-inhibitory concentration (IC50) on HIV protease of 6.7 nM. Compound `CC[C@H](C)[C@H](NC(=O)[C@H](CCC(N)=O)NC(=O)[C@H](CC(C)C)NC[C@H](Cc1ccccc1)NC(=O)[C@@H](NC(C)=O)[C@@H](C)CC)C(N)=O` [Example 16, Ac-Ile-Pheψ[CH₂NH]Leu-Gln-Ile-NH₂] returned an IC50 against HIV protease of 180 nM.

Regarding `CC[C@H](C)[C@H](NC(=O)[C@H](CCC(N)=O)NC(=O)[C@H](CC(C)C)NC[C@H](Cc1ccccc1)NC(=O)[C@@H](NC(=O)[C@H](C)O)C(C)C)C(N)=O` [Example 19, [(S)-CH₃CH(OH)C(O)]-Val-Pheψ[CH₂NH]Leu-Gln-Ile-NH₂], the IC50 against HIV protease turned out to be 660 nM.

Compound `CC[C@H](C)[C@H](NC(=O)[C@H](CCC(N)=O)NC(=O)[C@H](CC(C)(C)C)NC[C@H](Cc1ccccc1)NC(=O)[C@@H](NC(C)=O)C(C)C)C(N)=O` [Example 21, Ac-Val-Pheψ[CH₂NH]Tba-Gln-Ile-NH₂] displayed an IC50 against HIV protease of 720 nM. Still for that read-out and setting: to `CC(=O)N[C@H](C(=O)N[C@H](CN[C@@H](CC(C)C)C(=O)N[C@H](C(=O)N[C@@H](COCc1ccccc1)C(N)=O)C(C)C)Cc1ccccc1)C(C)C` [Example 22, Ac-Val-Pheψ[CH₂NH]Leu-Val-Ser(OBzl)-NH₂] belongs 29 nM.

The record behind these values is patent EP0443559A2, “HIV protease inhibiting agents” (BIO-MEGA/BOEHRINGER INGELHEIM RESEARCH INC., priority 1990, dated 1991).
